SMILES strings stand for the structures.

One assay relates to E. coli M15 cells. Description: Bacterial growth (OD600) in the presence of toxin. It is filed as cell-based, Escherichia coli. As to conditions: for growth of non-transgenic bacteria: E. coli M15 with empty vector pQE30, 4 h at 37° C.; for ΔOD600 (growth of transgenic bacteria): E. coli M15 with pQETMT1, 4 h at 37° C. The procedure:
E. coli M15 cells transformed with the empty vector pQE30 (referred to as non-transgenic bacteria) or pQETMT1 (hereafter referred to as transgenic bacteria) were grown as 15 ml starter cultures in LB medium supplemented with 100 μg/ml ampicillin and […] kanamycin at 37° C. for 16 h. 5 ml of each culture was then transferred to 100 ml of fresh LB medium containing the same concentrations of both antibiotics and cultures grown to an OD600 of 0.6. […] In the culture tubes, expression of the recombinant TMT protein was induced by adding […] (IPTG) to a final concentration of 1 mM. All the culture tubes were incubated at 37° C. for another 4 h. Bacterial growth at different toxin concentrations was measured by optical density (OD600) and the difference in OD600 (ΔOD600) was calculated.

The next assay concerns HEK 293 cells. The experiment in a line: Growth of transfected HEK 293 cells monitored by GFP fluorescence. Conditions: 0-200 mM toxin, 24 h. It is filed as cell-based. The procedure:
A TMT insert was generated by linearizing pBluescript vector harboring the full-length clone (described in Example 2) with SpeI and ApaI and inserted into the pTracer™-SV40 mammalian expression plasmid. This vector contains a cycle-3-GFP, an improved Green Fluorescent Protein gene fused to Zeocin™ resistance gene for selection in mammalian cells. Transfection of HEK 293 cells was carried out in 24 well plates using Fugene 6™ Transfection reagent (Roche Molecular Biochemicals). A ratio of DNA to Fugene of 1:6 and 200 or 400 ng of DNA were used. Each well was seeded with 2×10^5 cells grown in a monolayer for 16 h in […] DMEM containing 10% serum. Transfection was performed on 90% confluent cells. Prior to transfection, the medium containing serum was removed and replaced with 150 μl of serum-free medium in each well. A DNA/Fugene 6 mixture was incubated for 15 min at room temperature and 100 μl of this mixture was added drop-wise to each well while cells were gently rocked. After a 3 hour incubation, another 250 μl DMEM containing 2× serum was added to each well and cells were further incubated for 48 h. […] These cells were allowed to grow for another 24 h. Growth was monitored by fluorescent microscopy to detect the presence of GFP. […] The emission of CH3I was then monitored by gas chromatography.

Another assay has as its system tobacco plants. Description: In vivo TMT activity of tobacco plants grown on SCN. As to conditions: transgenic tobacco plant. Here is the method:
(§1) In vivo assay: This assay was used in the studies described herein. In vivo TMT activity is measured in 10 leaf disks placed on a Whatman filter paper (4.25 cm) in a 50-ml Erlenmeyer flask, and incubated with 2 ml of a 100 mM KI solution (Saini et al., [1995] Plant, Cell and Environment, 18:1027-1033). The flask is sealed with a rubber stopper and CH3I formed in the headspace is quantified after 2 h by gas chromatography. Assays for alternative substrates or inhibitors of the enzyme contained 20 mol m^−3 KI (the known substrate) and a range of concentrations of the compound to be tested. In the assay for HS^− methylation, KI in the above assay is replaced with 20 mM (NH4)2S.
With reference to FIG. 34, the effect of SCN on in vivo TMT activity of transgenic/non-transgenic tobacco plants was analysed. […] As the concentration of SCN increased to 5 mM, the transgenic plant was able to methylate the SCN but beyond 5 mM, the activity decreased as higher SCN levels appear to confer some toxicity to the plant.

The subject of a further assay is potato roots. Description: Potato root growth on MS with toxin (WinRhizo root length). Set-up: species or system Solanum tuberosum cv Russet Burbank. Conditions: increasing toxin concentration, 10 days, transgenic and non-transgenic roots. From the text: pBluescript plasmid harboring the full-length TMT1clone (SEQ ID NO:1) was linearized with BamHI and KpnI and cloned in a sense orientation into the binary pBin19 double enhancer vector between the 35S promoter of CaMV and the Nos terminator. Agrobacterium rhizogenes wild-type strain A4 was then transformed either with the pBin/TMT vector or pBin vector alone. Freshly cut Solanum tuberosum cv Russet Burbank petioles were decontaminated by soaking in diluted commercial bleach (10%) containing 0.01% Tween-20™ for 10 min, followed by three 10 min washes in sterile water. The petioles were then cut into 4 cm segments and cultured apical side down in MS medium containing 0.4% phytagel™. The upper parts of the petioles were infected with freshly streaked A. rhizogenes A4 carrying the pBin19 vector alone (non-transgenic roots) or with the pBin vector with the TMT insert (transgenic roots). Roots started appearing after about 10 days. […]
Every 2 weeks, the carbenicillin concentration was halved until no carbenicillin was present in the medium. All roots were then screened for TMT activity using an in vivo technique where KI in solution (100 mM) was added to the roots and emission of CH3I was detected using gas chromatography. […] The roots were placed in MS containing 0.2% phytagel and allowed to grow for 10 days after which the growth was measured using WinRhizo™ software.

The test system of a further assay is A. thaliana plants. The experiment in a line: In vivo TMT activity in 3 Arabidopsis phenotypes grown on SCN. The procedure: as §1
With reference to FIG. 36, the effect of SCN on TMT activity in 3 Arabidopsis phenotypes was analysed. […] As the concentration of SCN increased the TT and Tt plants were less and less able to methylate the SCN. TT plants could methylate the SCN up to 10 mM while the Tt had no activity after 2.5 mM, as it appears that higher levels of SCN may have some toxicity to the heterozygote plant.

For `I` [KI], in the assay on E. coli M15 cells (250 mM KI), the “growth of non-transgenic bacteria” value is given as “growth of the non-transgenic bacteria was halted” and the “ΔOD600 (growth of transgenic bacteria)” value is on record as 0.547. Further, the “GFP fluorescence (cell viability), transgenic vs non-transgenic cells” value with HEK 293 cells is listed as “more fluorescence in the transgenic than in the non-transgenic cells”.
Regarding `N#C[S-].[Na+]` [NaSCN], the “SCN concentration beyond which in vivo TMT activity decreased” value in the assay on tobacco plants is more than 5 mM. Further, in the assay with E. coli M15 cells (200 mM NaSCN), the “growth of non-transgenic bacteria” value is “halted non-transgenic bacterial growth” and the “ΔOD600 (growth of transgenic bacteria)” value is 0.377. In the assay on potato roots, the “root growth (root length)” value is “growth of both transgenic and non-transgenic roots was affected”. Moreover, the “GFP fluorescence (cell viability), transgenic vs non-transgenic cells” value in the assay on HEK 293 cells is “more fluorescence in the transgenic than in the non-transgenic cells”. Also, the “SCN concentration up to which plants could methylate SCN (TMT activity)” value with A. thaliana plants (TT (wild type) plants) is listed as “up to 10 mM”. For the same compound, the “SCN concentration after which there was no TMT activity” value in the assay on A. thaliana plants (Tt (heterozygous) plants) was more than 2.5 mM.

These data come from US20070169214A1, “Thiol methyltransferase-based selection” (priority 2004, published 2007).
